The target in test [1] is T1, human 5-HT4(a) receptor (Homo sapiens, UniProt Q13639).
T1 construct: expressed in transfected cells; host or cells: COS-7 cells, transient transfection with a pcDNA3 construct
Briefly: Competition with […] [3H]GR113808 binding, membranes of transfected COS-7 cells. The settings on record: for pKi / Ki: Human 5-HT4 a receptor in Cos-7 cells, Cheng and Prusoff.

Test [2] has as its target T2, human 5-HT4(b) receptor (Homo sapiens, UniProt Q13639).
T2 construct: expressed in transfected cells; host or cells: COS-7 cells, transient transfection with a pcDNA3 construct
The description is as above. The settings on record: for pKi / Ki: Human 5-HT4 b receptor in Cos-7 cells, Cheng and Prusoff.

Test [3] concerns the target T3, human 5-HT4(h) receptor (Homo sapiens, UniProt Q13639). The test is described as above. The note with it: for pKi: Human 5-HT4 h receptor in Cos-7 cells, Cheng and Prusoff.
Protocol: Results are the mean of three independent experiments from three different transfections.
COS-7 cells were grown in DMEM supplemented with 10% fetal calf serum. A large scale plasmid preparation of 5-HT4(h)/pcDNA3 was made using the Qiagen large scale plasmid preparation kit.
The transfected COS-7 cells were cultured on 150 mm Petri dishes and washed twice with ice-cold phosphate-buffered saline. The cells were then scrapped from the plates with a cell scraper, suspended in 50 mM Tris-HCl buffer, pH 7.4, and harvested by centrifugation for 10 min at 16000 g. The pellet was resuspended in 5 mM Tris-HCl, pH 7.4, and homogenized with an Ultra Turax homogenizer; the resulting membranes were collected by centrifugation for 20 min at 25000 g. Membranes were stored at −70° C. in 50 mM Tris-HCl buffer, pH 7.4, at a protein concentration of 1 mg/ml. The Bradford protein assay was used for protein determination with bovine serum albumin as a standard.
The mixture was incubated 1 hour at 25° C.
The target in test [4] is T1, human 5-HT4(a) receptor. Briefly: cAMP formation in transiently transfected COS-7 cells (flashplate assay). The test is classed as cell-based. The settings on record: 5-HT4 variant a, n = 5, cAMP formation. On the procedure:
(§1) Results represent the increase of cAMP after stimulation by agonist since basal level has been removed. […] The efficacy and potency of the different agonists to trigger the cellular response was estimated and compared for the three different variants.
(§2) These experiments were done using the NEN adenylyl cyclase activation flashplate assay, according to the supplier. Cells were removed from the Petri dishes with 3 ml EDTA (0.04% w/v) and resuspended with phosphate buffered saline without Ca^2+ and Mg^2+. The cells were centrifuged at 1500 g for 5 minutes and the supernatants were removed. The pellet was resuspend in stimulation buffer and diluted to a concentration of 10^6 cells/ml, 50 μl thereof were added per well of the flashplate (50000 cells/well). Compounds were diluted in PBS containing 1 mM pargyline and 1 mM paroxetine, and 50 μl of the resulting mixture was added per well, followed by an incubation for 20 minutes at 370° C. […] After incubation for 24 h at room temperature, counting was done in a Topcount (Packard).
(Cyclic AMP is a second messenger, typically raised through Gs and lowered through Gi signalling.)

In test [5] the target is T2, human 5-HT4(b) receptor. The description is as above. The test is classed as cell-based. The note with it: 5-HT4 variant b, n = 8, cAMP formation. As for the experimental part:
as §1, §2

Test [6] has as its system COS-7 cells transfected with the empty vector. Briefly: cAMP assay, negative control cells. The format is cell-based. The note with it: stimulation with 10^−6 M of each agonist. The text has this:
Results represent the increase of cAMP after stimulation by agonist since basal level has been removed. […] The efficacy and potency of the different agonists to trigger the cellular response was estimated and compared for the three different variants. […] No difference in the pEC50 was noticed. The cAMP assay has been performed also for COS-7 cells transfected with the empty vector as a negative control.
These experiments were done using the NEN adenylyl cyclase activation flashplate assay, according to the supplier. Cells were removed from the Petri dishes with 3 ml EDTA (0.04% w/v) and resuspended with phosphate buffered saline without Ca^2+ and Mg^2+. The cells were centrifuged at 1500 g for 5 minutes and the supernatants were removed. The pellet was resuspend in stimulation buffer and diluted to a concentration of 10^6 cells/ml, 50 μl thereof were added per well of the flashplate (50000 cells/well). Compounds were diluted in PBS containing 1 mM pargyline and 1 mM paroxetine, and 50 μl of the resulting mixture was added per well, followed by an incubation for 20 minutes at […]. […] The experiment was stopped and a direct cAMP[^125I] detection assay was performed by adding 100 μl of detection mix per well. After incubation for 24 h at room temperature, counting was done in a Topcount (Packard).

Test [7] has as its target T3, human 5-HT4(h) receptor. The test can be described thus: cAMP formation in transiently transfected COS-7 cells (flashplate assay). More on the design: expressed in transfected cells; host or cells: COS-7 cells, transient transfection with 5-HT4(h)/pcDNA3. The test is classed as cell-based. As for the experimental part:
as §1, §2

Another test addresses T4, 5-HT4(a) variant (Homo sapiens, UniProt Q13639).
T4 construct: expressed in transfected cells; host or cells: COS-7 cells, transient transfection with a pcDNA3 construct
Briefly: Radioligand saturation binding, membranes of transfected COS-7 cells. From the text: (§3) In order to compare the pharmacological properties of the 5-HT4(h) variant with those of the previously cloned 5-HT4(a) and b variant, the three corresponding pcDNA3 expression constructs were transiently transfected into COS cells. The receptors were investigated by radioligand binding assays on membrane preparations.

Another test addresses T5, 5-HT4(b) variant (Homo sapiens, UniProt Q13639).
T5 construct: expressed in transfected cells; host or cells: COS-7 cells, transient transfection with a pcDNA3 construct
The test is described as above.
Source text: as §3

In a further test the target is T6, h 5-HT4(h) (Homo sapiens, UniProt Q13639).
T6 construct: expressed in transfected cells; host or cells: COS-7 cells, transient transfection with 5-HT4(h)/pcDNA3
T6 sequence (Q13639 1-402 isoform Q13639-6): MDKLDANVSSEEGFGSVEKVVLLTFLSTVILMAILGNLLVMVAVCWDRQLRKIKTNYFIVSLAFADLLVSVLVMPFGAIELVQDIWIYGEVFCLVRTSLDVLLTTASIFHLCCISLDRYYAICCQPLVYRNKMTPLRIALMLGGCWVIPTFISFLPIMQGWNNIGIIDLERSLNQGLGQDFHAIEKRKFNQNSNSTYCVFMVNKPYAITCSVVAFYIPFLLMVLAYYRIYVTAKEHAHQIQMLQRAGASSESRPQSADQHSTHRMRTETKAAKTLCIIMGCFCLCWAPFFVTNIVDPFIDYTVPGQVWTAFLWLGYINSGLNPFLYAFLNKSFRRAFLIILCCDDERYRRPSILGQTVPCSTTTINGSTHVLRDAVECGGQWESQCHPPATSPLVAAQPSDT
Described as above. The note with it: h variant, 3 independent transfections.
Source text: as §3

Test [8] deals with COS-7 cells transfected with the vector alone. Briefly: Radioligand binding, negative control cells. The note with it: 3 independent transfections. From the text: The same result was obtained for the Bmax values found for the high affinity sites of the 2 reference 5-HT receptor variants a and b. […] Results are the mean of three independent transfections.
[9] abbreviates: 5-HT4 variant h, n = 3, cAMP formation.

Structures are written as SMILES.

Broadly, the pKi is −log10 of the Ki, conventionally taken in molar units. A word on the IC50: it is the concentration needed to halve the response being measured. High values mean weaker potency in that assay, low ones greater potency in that assay. Broadly, the Ki is the equilibrium dissociation constant of an inhibitor or competing ligand from its target. Higher therefore signals weaker binding. The Kd is the concentration at which binding is half-saturated.

T1 sequence (Q13639 1-387 isoform Q13639-2): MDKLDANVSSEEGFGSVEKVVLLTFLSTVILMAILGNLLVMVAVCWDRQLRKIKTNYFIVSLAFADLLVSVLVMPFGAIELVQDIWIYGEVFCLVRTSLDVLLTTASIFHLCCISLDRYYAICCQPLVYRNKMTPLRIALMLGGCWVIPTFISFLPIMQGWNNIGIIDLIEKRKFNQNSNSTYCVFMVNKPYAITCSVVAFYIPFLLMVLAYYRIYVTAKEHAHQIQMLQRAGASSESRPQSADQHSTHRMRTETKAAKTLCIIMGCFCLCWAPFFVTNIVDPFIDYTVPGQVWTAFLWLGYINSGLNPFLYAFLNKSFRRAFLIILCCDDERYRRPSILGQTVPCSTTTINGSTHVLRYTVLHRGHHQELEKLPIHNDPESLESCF
T2 sequence (Q13639 whole entry): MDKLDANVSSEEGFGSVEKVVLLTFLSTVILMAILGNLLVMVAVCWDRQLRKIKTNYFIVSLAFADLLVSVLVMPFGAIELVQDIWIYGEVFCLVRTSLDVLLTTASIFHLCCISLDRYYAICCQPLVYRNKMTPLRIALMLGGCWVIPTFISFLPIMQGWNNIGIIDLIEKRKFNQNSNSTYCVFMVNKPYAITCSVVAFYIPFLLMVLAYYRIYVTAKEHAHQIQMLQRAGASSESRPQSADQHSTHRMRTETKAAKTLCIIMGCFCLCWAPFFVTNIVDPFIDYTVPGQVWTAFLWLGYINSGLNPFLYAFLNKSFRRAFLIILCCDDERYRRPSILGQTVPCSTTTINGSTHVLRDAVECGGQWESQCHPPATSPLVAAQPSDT
T3 sequence (Q13639 1-402 isoform Q13639-6): as the sequence (Q13639 1-402 isoform Q13639-6) above
T4 sequence (Q13639 1-387 isoform Q13639-2): as the sequence (Q13639 1-387 isoform Q13639-2) above

As to `COc1ccc2[nH]cc(CCN)c2c1` [5-MeOT], the pKi on human 5-HT4(a) receptor [1] turned out to be 6.08; on human 5-HT4(b) receptor [2] it was 6.13; at human 5-HT4(h) receptor [3], 6.1.

In the case of `NCCc1c[nH]c2ccc(O)cc12` [5HT, 5-hydroxytryptamine], the “% of 5HT max (+/− SD)” value on human 5-HT4(a) receptor [4], on human 5-HT4(b) receptor [5] and on human 5-HT4(h) receptor [7] (setting [9]) was 100% throughout. The “increase of the cAMP basal level” value in [6] is “no significant increase”.

For the molecule `COc1cc(N)c(Cl)cc1C(=O)NC1CCN(CCCOc2ccc(F)cc2)CC1OC` (stereo not drawn) [Cisapride], in test [6], the “increase of the cAMP basal level” value is given as “no significant increase”.

`Cn1cc(C(=O)OCC2CCN(CCNS(C)(=O)=O)CC2)c2ccccc21` [GR113808]: the pKi on human 5-HT4(a) receptor [1] is 9.54; at human 5-HT4(b) receptor [2], 9.57; at human 5-HT4(h) receptor [3], 9.29. For the same molecule, the “% of 5HT max (+/− SD)” value on human 5-HT4(a) receptor [4] came to 0%; on human 5-HT4(b) receptor [5], 0%; at human 5-HT4(h) receptor [7] (setting [9]), 54.6%. Also, the “pEC50 (+/1 SD)” value at human 5-HT4(h) receptor [7] (setting [9]) was found to be 7.95. Besides, the “effect at the 5-HT4(h) variant (agonist/antagonist)” value at human 5-HT4(h) receptor [7] (in words) was “agonistic effect”.

On to `CCOc1cc(N)c(Cl)cc1C(=O)NCC1CN(Cc2ccc(F)cc2)CCO1` (stereo not drawn) [Mosapride], for which the IC50 on human 5-HT4(a) receptor [1] is 331 nM; on human 5-HT4(b) receptor [2] it was 912 nM; at human 5-HT4(h) receptor [3], 282 nM. The results for the Ki at human 5-HT4(a) receptor [1], at human 5-HT4(b) receptor [2] and on human 5-HT4(h) receptor [3] were 195 nM, 661 nM and 141 nM, respectively.

For the molecule `COCCCN1CCC(NC(=O)c2cc(Cl)c(N)c3c2OCC3)CC1` [Prucalopride], the “% of 5HT max (+/− SD)” value on human 5-HT4(a) receptor [4] is 118%; on human 5-HT4(b) receptor [5], 117.36%; at human 5-HT4(h) receptor [7] (setting [9]), 95%. For the same molecule, the “increase of the cAMP basal level” value in test [6] is recorded as “no significant increase”.

For `CCCCN1CCC(COC(=O)c2cc(Cl)c(N)c3c2OCCO3)CC1` [SB204070], the pKi at human 5-HT4(a) receptor [1] turned out to be 10.15; on human 5-HT4(b) receptor [2], 10.04; at human 5-HT4(h) receptor [3], 10.38.

Turning to `CCCCCNC(=N)N/N=C/c1c[nH]c2ccc(OC)cc12` [SDZ-HTF919], the IC50 at human 5-HT4(a) receptor [1] was 8.32 nM; on human 5-HT4(b) receptor [2], 12.9 nM; at human 5-HT4(h) receptor [3], 35.5 nM. Further, the Ki was 13.8 nM at human 5-HT4(a) receptor [1], 8.13 nM at human 5-HT4(b) receptor [2] and 25.7 nM at human 5-HT4(h) receptor [3].

In the case of `Cn1cc(C(=O)OCC2CCN(CCNS(C)(=O)=O)CC2)c2ccccc21` [[^3H]GR113808], the values for the Kd at 5-HT4(a) variant, at 5-HT4(b) variant and at h 5-HT4(h) were 0.14 nM, 0.19 nM and 0.24 nM, respectively. In addition, the specific binding result in test [8] is listed as “no specific binding”.

Source of the values: patent US6998244B1, “Cloning and expression of a novel 5-HT4 receptor” (Janssen Pharmaceutica N.V., priority 1999, dated 2006).
